Structures can show the parent of a compound that is named as a salt.
Experiments:
[1] = test system: Candida glabrata IFO 0622; test: Antifungal activity (agar plate dilution method), organism D; type: cell-based; settings: Nakaseomyces glabratus, IFO0622, 35° C., 20 hours, pH 7.0
Protocol: (§1) Determination of Antifungal Activity (Agar Plate Dilution Method)
(§2) RPMI 1640 (Gibco BRL) was dissolved in 0.3 M MOPS buffer, pH 7.0, to obtain a 2-fold dilution; this solution was filtered to remove germ cells (0.45 μm). Separately, 1.4% agar (Wako Pure Chemical Industries) was thermally sterilized (121° C., 15 minutes). This agar was mixed with an equal amount of the above 2-fold diluted RPMI 1640 (0.15 M MOPS, pH 7.0). To 9.9 ml of this RPMI 1640 (0.15 M MOPS, pH 7.0)-0.7% agar medium, 0.1 ml of a 100-fold diluted DMSO solution of the test drug was added; this mixture was prepared as an agar plate in a petri dish 9 cm in diameter. The drug (dissolved in DMSO to 100-fold dilution) was used in a series of 2-fold dilutions of a starting concentration of 64 μg/ml in the agar medium. For drug-free control, an agar medium containing 0.1 ml of DMSO or […] of sterile water was prepared. An inoculum of frozen cells was diluted with physiological saline and spot inoculated onto the agar medium (0.005 ml; 700-15,000 cfu) using a microplanter (Sakuma Seisakusho), followed by cultivation at 35° C. for 20 hours. Antifungal activity was assessed macroscopically; the minimum concentration for complete growth inhibition was expressed as MIC (minimum growth inhibitory concentration).

[2] = test system: Aspergillus niger IFO 4414; test: Antifungal activity (agar plate dilution method), organism I; type: cell-based; settings: IFO4414, 35° C., 20 hours, pH 7.0
Protocol: as §1, §2

[3] = test system: Candida tropicalis IFO 0587; test: Antifungal activity (agar plate dilution method), organism B; type: cell-based; settings: IFO0587, 35° C., 20 hours, pH 7.0
Protocol: as §1, §2

Candida krusei IFO 0584 = test: Antifungal activity (agar plate dilution method), organism E; type: cell-based; settings: Pichia kudriavzevii, IFO0584, 35° C., 20 hours, pH 7.0
Protocol: as §1, §2

Candida utilis IFO 0619 = test: Antifungal activity (agar plate dilution method), organism G; type: cell-based; settings: Williopsis jadinii, IFO0619, 35° C., 20 hours, pH 7.0
Protocol: as §1, §2

Candida krusei IFO 1162 = test: Antifungal activity (agar plate dilution method), organism F; type: cell-based; settings: Pichia kudriavzevii, IFO1162, 35° C., 20 hours, pH 7.0
Protocol: as §1, §2

[4] = test system: Candida tropicalis IFO 10241; test: Antifungal activity (agar plate dilution method), organism C; type: cell-based; settings: IFO10241, 35° C., 20 hours, pH 7.0
Protocol: as §1, §2

[5] = test system: Candida albicans IFO 0583; test: Antifungal activity (agar plate dilution method), organism A; type: cell-based; settings: IFO0583, 35° C., 20 hours, pH 7.0
Protocol: as §1, §2

[6] = test system: Aspergillus fumigatus IFO 6344; test: Antifungal activity (agar plate dilution method), organism H; type: cell-based; settings: IFO6344, 35° C., 20 hours, pH 7.0
Protocol: as §1, §2

[7] = test system: Cholesterogenesis in Rat Liver; test: Inhibition of cholesterogenesis in rat liver ([14C] acetic acid incorporation); type: in vivo, male Sprague-Dawley rats; settings: by stomach tube, lower values indicate higher inhibitory activity
Protocol: Inhibition of Cholesterogenesis in Rat Liver
An aqueous solution of the test drug was administered, by a stomach tube, to male Sprague-Dawley rats at 5 weeks of age; 1 hour later, [^14 C] acetic acid was intravenously administered at a dose of 10 μCi per animal. One hour later, the animals were bled, livers were excised and a portion of liver was treated with a chloroform:methanol mixture to extract lipids. After the lipid fraction was saponified, sterol was extracted with petroleum ether, precipitated using digitonin and the radioactivity in the precipitate fraction was determined using a scintillation counter. The control group orally received 0.5% methyl cellulose solution alone.
The results are shown in Table 3 (lower percent control values indicate higher cholesterol synthesis inhibitory activity).

[8] = Plasma HDL-cholesterol-elevating effect in Wistar fatty rats; type: in vivo, Female Wistar fatty rats; settings: for HDL-cholesterol / Total cholesterol / Glucose / Triglyceride / Non-HDL-cholesterol: plasma, 1 week, stomach tube, mean ± standard deviation; for HDL-cholesterol: control 92.4 ± 9.2; for Total cholesterol: control 154 ± 13; for Glucose: control 285 ± 45; for Triglyceride: control 694 ± 192; for Non-HDL-cholesterol: total minus HDL, control 62.0 ± 12.5
Excerpt: Plasma HDL-cholesterol-elevating Effect in Wistar Fatty Rats
Female Wistar fatty rats (19 weeks of age, bred in Experimental Animals Unit, Takeda Chemical Industries, Ltd.) were given a 0.5% methyl-cellulosesolution of compound 31 by a stomach tube for 1 week. Blood was collected via the orbital sinus under non-fasting conditions; plasma total cholesterol and HDL-cholesterol were enzymatically determined using a commercial kit (produced by Wako Pure Chemical Industries, Ltd.). Non-HDL-cholesterol levels were obtained by subtracting HDL-cholesterol from total cholesterol levels. Triglyceride and glucose were also enzymatically determined using commercial kits (both produced by Iatron Laboratories, Inc.).

| MIC [1] [mg/L] | MIC [2] [mg/L] | MIC [3] [mg/L] | MIC (Candida krusei IFO 0584) [mg/L] | MIC (Candida utilis IFO 0619) [mg/L] | MIC (Candida krusei IFO 1162) [mg/L] | MIC [4] [mg/L] | MIC [5] [mg/L] | MIC [6] [mg/L] | Compound | other results |
| --- | --- | --- | --- | --- | --- | --- | --- | --- | --- | --- |
| 16 | 2 | 32 | 4 | 2 | 8 | 64 | 16 | 2 | CN(C)Cc1cc2c(o1)CN(C(=O)CCCCCc1ccc(F)cc1)CC2 [Example 27, 1-(2-dimethylaminomethyl-5,7-dihydro-4H-furo[2,3-c]pyridin-6-yl)-6-(4-fluorophenyl)hexan-1-one hydrochloride] |  |
| 16 | 4 | 2 | 4 | 2 | 8 | 32 | 8 | 4 | CN(C)Cc1cc2c(o1)CCN(C(=O)CCCCCc1ccc(F)cc1)C2 [Example 28, 1-(2-dimethylaminomethyl-6,7-dihydro-4H-furo[3,2-c]pyridin-5-yl)-6-(4-fluorophenyl)hexan-1-one hydrochloride] |  |
|  |  |  |  |  |  |  |  |  | CCN(CC)Cc1cc2c(o1)CN(C(=O)c1ccc(C(=O)c3ccccc3)cc1)CC2 [Example 39, N,N-diethyl-[6-(4-benzoylbenzoyl)-4,5,6,7-tetrahydrofuro[2,3-c]pyridin-2-ylmethyl]amine hydrochloride] | Cholesterol synthesis in rat liver, % of control ([7]; 3.0 mg/kg): 64.6 % Control |
|  |  |  |  |  |  |  |  |  | CN(C)Cc1cc2c(o1)CCN(S(=O)(=O)CCCCCc1ccccc1)C2 [Example 53, N,N-dimethyl-[5-(5-phenylpentylsulfonyl)-4,5,6,7-tetrahydrofuro[3,2-c]pyridin-2-ylmethyl]amine hydrochloride] | Cholesterol synthesis in rat liver, % of control ([7]; 10 mg/kg): 42.3 % Control |
| 4 | 1 | 2 | 1 | 1 | 2 | 2 | 2 | 1 | CCCCCCCc1ccc(C(=O)N2CCc3cc(CN(C)C)oc3C2)cc1 [Example 21, N,N-dimethyl-[6-(4-heptylbenzoyl)-4,5,6,7-tetrahydrofuro[2,3-c]pyridin-2-ylmethyl]amine hydrochloride] |  |
| 64 | 0.5 | 2 | 16 | 4 | 32 | 16 | 8 | 0.5 | CN(C)Cc1cc2c(o1)CN(C(=O)c1ccc(C(=O)c3ccc(Cl)cc3)cc1)CC2 [Example 31, N,N-dimethyl-[6-[4-(4-chlorobenzoyl)benzoyl]-4,5,6,7-tetrahydrofuro[2,3-c]pyridin-2-ylmethyl]amine hydrochloride] | Plasma HDL-cholesterol level ([8]; in words, Wistar fatty rats): increased significantly, depending on dose; Plasma glucose level ([8]; in words, Wistar fatty rats): not affected; Plasma non-HDL-cholesterol level ([8]; in words, Wistar fatty rats): not affected; Plasma total cholesterol level ([8]; in words, Wistar fatty rats): increased significantly, depending on dose; Plasma triglyceride level ([8]; in words, Wistar fatty rats): not affected; HDL-cholesterol ([8]; 0.1 mg/kg-day, p<0.05): 113 ± 15.4 mg/dL; Total cholesterol ([8]; 0.1 mg/kg-day): 175 ± 21 mg/dL; Glucose ([8]; 0.1 mg/kg-day): 251 ± 72 mg/dL; Triglyceride ([8]; 0.1 mg/kg-day): 599 ± 195 mg/dL; Non-HDL-cholesterol ([8]; 0.1 mg/kg-day): 62.5 ± 7.9 mg/dL; HDL-cholesterol ([8]; 0.3 mg/kg-day, p<0.05): 135 mg/dL; Total cholesterol ([8]; 0.3 mg/kg-day, p<0.05): 192 ± 24 mg/dL; Glucose ([8]; 0.3 mg/kg-day): 242 ± 39 mg/dL; Triglyceride ([8]; 0.3 mg/kg-day): 538 ± 155 mg/dL; Non-HDL-cholesterol ([8]; 0.3 mg/kg-day): 57.1 ± 10.7 mg/dL |
| 32 | 8 | 2 | 4 | 2 | 16 | 16 | 16 | 16 | CN(C)Cc1cc2c(o1)CCN(C(=O)CCCCCc1ccccc1)C2 [Example 6, 1-(2-dimethylaminomethyl-6,7-dihydro-4H-furo[3,2-c]pyridin-5-yl)-6-phenylhexan-1-one hydrochloride] |  |
| 16 | 4 | 2 | 16 | 2 | 16 | 8 | 8 | 8 | CN(C)Cc1cc2c(o1)CN(C(=O)CCCCSc1ccccc1)CC2 [Example 43, 1-(2-dimethylaminomethyl-5,7-dihydro-4H-furo[2,3-c]pyridin-6-yl)-5-phenylthiopentan-1-one hydrochloride] |  |
| 32 | 8 | 8 | 8 | 4 | 16 | 8 | 16 | 8 | CN(C)Cc1cc2c(o1)CCN(C(=O)CCCCSc1ccccc1)C2 [Example 44, 1-(2-dimethylaminomethyl-6,7-dihydro-4H-furo[3,2-c]pyridin-5-yl)-5-phenylthiopentan-1-one hydrochloride] |  |
| 16 | 0.25 | 16 | 8 | 4 | 16 | 64 | 32 | 0.5 | CN(C)Cc1cc2c(o1)CN(C(=O)c1ccc(/C=C\c3ccccc3)cc1)CC2 [Example 33, (Z)-N,N-dimethyl-[6-(4-stilbenecarbonyl)-4,5,6,7-tetrahydrofuro[2,3-c]pyridin-2-ylmethyl]amine hydrochloride] |  |
|  |  |  |  |  |  |  |  |  | CNCc1cc2c(o1)CN(C(=O)CCCCCc1ccccc1)CC2 [Example 38, 1-(2-methylaminomethyl-5,7-dihydro-4H-furo[2,3-c]pyridin-6-yl)-6-phenylhexan-1-one hydrochloride] | Cholesterol synthesis in rat liver, % of control ([7]; 30 mg/kg): 29.9 % Control |
| 32 | 2 | 8 | 32 | 8 | 32 | 32 | 16 | 2 | CN(C)Cc1cc2c(o1)CCN(C(=O)c1ccc(C(=O)c3ccc(Cl)cc3)cc1)C2 [Example 32, N,N-dimethyl-[5-[4-(4-chlorobenzoyl)benzoyl]-4,5,6,7-tetrahydrofuro[3,2-c]pyridin-2-ylmethyl]amine hydrochloride] |  |

| Compound | MIC [1] [mg/L] | MIC [2] [mg/L] | MIC [3] [mg/L] | MIC (Candida krusei IFO 0584) [mg/L] | MIC (Candida utilis IFO 0619) [mg/L] | MIC (Candida krusei IFO 1162) [mg/L] | MIC [4] [mg/L] | MIC [5] [mg/L] | MIC [6] [mg/L] | other results |
| --- | --- | --- | --- | --- | --- | --- | --- | --- | --- | --- |
| CN(C)Cc1cc2c(o1)CCN(C(=O)OCCCCc1ccccc1)C2 [Example 48, N,N-dimethyl-[5-(4-phenylbutoxycarbonyl)-4,5,6,7-tetrahydrofuro[3,2-c]pyridin-2-ylmethyl]amine hydrochloride] | 32 | 16 | 8 | 8 | 2 | 16 | 64 | 16 | 32 |  |

— patent publication US5998433A, “Condensed compounds, their production and use” (Takeda Chemical Industries, Ltd., priority 1994, dated 1999)
